pIC50: −log10 of the molar value.
Columns and labels:
Test in all cases: inhibition of MMP and meprin peptide cleavage – biochemical, QFRET, MMP1/2/8/9/10/13/14, Meprin A/B, selectivity assay for ADAM10 and ADAM17 inhibitor project, late-stage follow-up (AID 743473)
[1] = target: Collagenase 3 (Homo sapiens) (UniProt P45452); settings: MCA fluorescence, metalloprotease panel, MMP13
MMP10 = settings: MCA fluorescence, metalloprotease panel
MMP14 = settings: MCA fluorescence, metalloprotease panel
MMP1 = settings: MCA fluorescence, metalloprotease panel
MMP2 = settings: MCA fluorescence, metalloprotease panel
MMP8 = settings: MCA fluorescence, metalloprotease panel
MMP9 = settings: MCA fluorescence, metalloprotease panel
Meprin A = settings: MCA fluorescence, metalloprotease panel
Meprin B = settings: MCA fluorescence, metalloprotease panel

pIC50 [1]	pIC50 (MMP10)	pIC50 (MMP14)	pIC50 (MMP1)	pIC50 (MMP2)	pIC50 (MMP8)	pIC50 (MMP9)	pIC50 (Meprin A)	pIC50 (Meprin B)	Structure (SMILES)
< 4.00	< 4.00	< 4.00	< 4.00	< 4.00	< 4.00	< 4.00	< 4.00	< 4.00	COc1cccc(C(=O)NNC(=O)C(=O)Nc2ccc(C)c(Cl)c2)c1
4.45	4.54	4.43	4.12	5.33	5.80	5.52	< 4.00	< 4.00	CCOc1ccc(NC(=O)CC2SC(=O)N(c3ccccc3)C2=O)cc1 (stereo unspecified)
< 4.00	< 4.00	< 4.00	< 4.00	< 4.00	< 4.00	< 4.00	< 4.00	< 4.00	O=C(O)CCC(=O)c1c[nH]c2ccccc12
< 4.00	< 4.00	< 4.00	4.73	< 4.00	5.19	< 4.00	< 4.00	< 4.00	O=C1NC(=O)C(Cc2ccc(Cl)cc2)(c2ccccc2)N1 (stereo unspecified)

From PubChem BioAssay AID743473 (The Scripps Research Institute Molecular Screening Center, 2014)
